Five molecules from ChEMBL document CHEMBL1131707, “Methionyl adenylate analogues as inhibitors of methionyl-tRNA synthetase” (1999) can be followed below.

The structures appear in SMILES notation. ≈ marks a conversion by molar mass, not a printed value.

Assay [1] concerns Staphylococcus epidermidis. Briefly: Antibacterial activity of compound was determined against […] 887E. Type of assay: functional.
A further assay deals with Staphylococcus aureus. Briefly: Antibacterial activity of compound was determined against Staphylococcus aureus 1538p. Type of assay: functional.
For another assay, the system named is Salmonella typhimurium. Briefly: Antibacterial activity of compound was determined against Salmonella Typhimurium 14028. In kind it is functional, Salmonella enterica subsp. enterica serovar Typhimurium. The conditions noted are these: Salmonella enterica.
For the next assay, the system named is Klebsiella pneumoniae. Briefly: Antibacterial activity of compound was determined against Klebsiella pneumoniae 2011E. In kind it is functional.
The next assay relates to Klebsiella aerogenes. Briefly: Antibacterial activity of compound was determined against Klebsiella aerogenes 1976E. Type of assay: functional.
Another assay relates to Escherichia coli. The experiment in a line: Antibacterial activity of compound was determined against Escherichia coli JM109. Type of assay: functional.
The next assay has as its system Bacillus cereus. Briefly: Antibacterial activity of compound was determined against Bacillus cereus ATCC 27348. In kind it is functional.
Another assay deals with Pseudomonas aeruginosa. The experiment in a line: Antibacterial activity of compound was determined against Pseudomonas aeruginosa 1912. Type of assay: functional.

For orientation: MIC means the lowest concentration that inhibits growth of the organism. Lower therefore signals a more susceptible organism. Consider `CSCC[C@H](N)C(=O)NO`, for which the MIC was over 64 µg/mL in assay [1]; over 64 µg/mL against Staphylococcus aureus; 8 µg/mL (≈ 48.7 µM) in the assay on Salmonella typhimurium; over 64 µg/mL in the assay on Klebsiella pneumoniae; 4 µg/mL (≈ 24.4 µM) with Klebsiella aerogenes; 0.5 µg/mL (≈ 3.04 µM) in the assay on Escherichia coli. Besides, the minimum inhibitory concentration (MIC) in the assay with Bacillus cereus and in the assay with Pseudomonas aeruginosa was over 64 µg/mL in each case.

In the case of `CSCC[C@H](N)C(=O)OC[C@H]1O[C@@H](n2cnc3c(N)ncnc32)[C@H](O)[C@@H]1O`, the MIC was over 64 µg/mL in assay [1]; over 64 µg/mL against Staphylococcus aureus; over 64 µg/mL against Salmonella typhimurium; over 64 µg/mL with Klebsiella pneumoniae; over 64 µg/mL in the assay on Klebsiella aerogenes; 0.5 µg/mL (≈ 1.25 µM) in the assay with Escherichia coli. Moreover, the MIC against Bacillus cereus is 32 µg/mL (≈ 80.3 µM); with Pseudomonas aeruginosa it was over 64 µg/mL.

Consider `CSCC[C@H](N)C(=O)NOC[C@H]1OC(n2cnc3c(N)ncnc32)[C@H](O)[C@@H]1O` (stereo not given in full), for which the minimum inhibitory concentration (MIC) in assay [1] is over 64 µg/mL; against Staphylococcus aureus, over 64 µg/mL; in the assay on Salmonella typhimurium, over 64 µg/mL; against Klebsiella pneumoniae, over 64 µg/mL; in the assay on Klebsiella aerogenes it was over 64 µg/mL; with Escherichia coli it was 8 µg/mL (≈ 19.3 µM). The minimum inhibitory concentration (MIC) with Bacillus cereus and in the assay on Pseudomonas aeruginosa was over 64 µg/mL each time.

Turning to `CSCC[C@H](N)C(=O)NC[C@H]1OC(n2cnc3c(N)ncnc32)[C@H](O)[C@@H]1O` (stereo not given in full), the MIC in assay [1] is over 64 µg/mL; against Staphylococcus aureus, over 64 µg/mL; with Salmonella typhimurium, over 64 µg/mL; in the assay with Klebsiella pneumoniae, over 64 µg/mL; against Klebsiella aerogenes it was over 64 µg/mL; against Escherichia coli it was 1 µg/mL (≈ 2.52 µM). In addition, the MIC in the assay with Bacillus cereus and with Pseudomonas aeruginosa was over 64 µg/mL each time.

As to `CSCC[C@H](N)C(=O)N(O)C[C@H]1OC(n2cnc3c(N)ncnc32)[C@H](O)[C@@H]1O` (stereo not given in full), the minimal inhibitory concentration (MIC) in assay [1] is over 64 µg/mL; with Staphylococcus aureus, over 64 µg/mL; in the assay on Salmonella typhimurium it was over 64 µg/mL; with Klebsiella pneumoniae it was over 64 µg/mL; against Klebsiella aerogenes, over 64 µg/mL; with Escherichia coli, 0.5 µg/mL (≈ 1.21 µM). Besides, the MIC in the assay with Bacillus cereus was 8 µg/mL (≈ 19.3 µM); with Pseudomonas aeruginosa, over 64 µg/mL.
